This is an account of results in paper PMC10186366 (ACS Pharmacology & Translational Science, 2023).

For assay [1], the system named is RT16 CHO cells (expresses only human FRα). Put plainly: Cell proliferation assay, RT16 CHO subline. The assay is classed as cell-based, Chinese hamster. An excerpt: (§1) We used a unique panel of engineered Chinese hamster ovary (CHO) sublines derived from a transporter-null MTXRIIOua^R2-4 CHO subline (R2) and designed to individually express human FRα (RT16), FRβ (D4), RFC (PC43-10), or PCFT (R2/PCFT).[39]−[42] As the CHO sublines are isogenic and differ only in the presence or absence of the human folate transporters, differences in the extent of inhibition of cell proliferation between the cell lines upon treatment with the various compounds provide a robust readout of transport specificities.[25],[26],[29],[30],[43]
(§2) The CHO sublines were treated for 96 h with a range of drug concentrations up to 1000 nM; cell viabilities were measured with a fluorescence assay.[26] […] As a control, we used transporter-null R2 cells.[42] To extend studies to human tumor cells, we also performed experiments in RFC-, PCFT-, and FRα-expressing KB tumor cells.[44] To confirm the contribution of FR-mediated uptake to antitumor activity, for KB cells, we added 200 nM folic acid, which inhibits FR uptake by direct competition without effects on either RFC or PCFT.[25],[26],[28]−[30],[43]
(§3) The MTXRIIOua^R2-4 RFC-, PCFT-, and FRα-null Chinese hamster ovary (CHO) cell line (R2) was a gift from Dr. Wayne Flintoff (University of Western Ontario).[40],[42] Isogenic CHO cell lines were subsequently derived from R2 cells by transfection with RFC, PCFT, or FRα cDNAs to generate PC43-10 (expresses only human RFC), R2/PCFT4 (expresses only human PCFT), RT16 (expresses only human FRα), and D4 (expresses only human FRβ).[25],[26],[39]
(§4) The CHO sublines were cultured in α-minimal essential medium (α-MEM) supplemented with 100 U/mL penicillin/100 μg/mL streptomycin, 2 mM L-glutamine, and 10% bovine calf serum (Sigma-Aldrich). For the PC43-10, R2/PCFT4, RT16, and D4 sublines, 1.5 mg/mL G418 was also added. Seventy-two hours prior to in vitro proliferation assays (below), RT16 and D4 CHO cells were grown in folate-free RPMI with dialyzed fetal bovine serum (DFBS) (Invitrogen) supplemented with 100 U/mL penicillin/[…] streptomycin and 2 mM L-glutamine. FRα-expressing KB nasopharyngeal carcinoma cells were acquired from the American Type Culture Collection (Manassas, VA); cells were grown in complete folate-free RPMI 1640 supplemented with 10% fetal bovine serum, 100 U/mL penicillin/100 μg/mL streptomycin, and 2 mM L-glutamine. Cell lines were authenticated by STR analysis (Genetica DNA Laboratories, Burlington, NC) and tested for Mycoplasma by PCR (Venor GeM Mycoplasma Detection Kit, Sigma). Frozen stocks were generated from authenticated Mycoplasma-free cultures.
(§5) Cell proliferation assays used CHO and KB cells cultured in folate-free-RPMI 1640 media with 10% DFBS, 2 mM L-glutamine, and 100 U/mL penicillin/100 μg/mL streptomycin supplemented with 2 nM (KB, RT16, D4) or 25 nM (R2, PC43-10, R2/PCFT4) leucovorin.[25],[26],[30] Parallel incubations with 200 nM folic acid were performed in viability assays to confirm FR-mediated drug uptake. Cells were plated in 96-well dishes at 2500–5000 cells/well in 200 μL media and treated with a range of C1 inhibitors spanning 0 to 1 μM. Cells were treated at 37 ° C with 5% CO2, and numbers were assayed after 96 h using CellTiter-blue (Promega, Madison, WI) and a fluorescence plate reader.[25],[26]

Assay [2] has as its system PC43-10 CHO cells (expresses only human RFC). The assay can be described thus: Cell proliferation assay, PC43-10 CHO subline. The conditions noted are these: 96 h, up to 1000 nM, 25 nM leucovorin, mean (standard error); for IC50: Homo sapiens, PC43-10. The assay is classed as cell-based, Chinese hamster.
Text: as §1, §2, §3, §4, §5

The subject of assay [3] is R2/PCFT4 CHO cells (expresses only human PCFT). Put plainly: Cell proliferation assay, R2/PCFT4 CHO subline. The assay is classed as cell-based, Chinese hamster. The settings on record: 96 h, 25 nM leucovorin, mean (standard error).
Text: as §1, §2, §3, §4, §5

The subject of assay [4] is R2 (MTXRIIOuaR2-4) RFC-, PCFT-, and FRα-null CHO cells. Put plainly: Cell proliferation assay, transporter-null R2 CHO subline. In kind it is cell-based, Chinese hamster. The settings on record: Cricetulus griseus, transporter-null control cells, 96 h, up to 1000 nM, mean (standard error).
Text: as §1, §2, §3, §4, §5

Another assay deals with KB tumor cells. Put plainly: Metabolite rescue of growth inhibition in KB cells. The assay is classed as cell-based, human. The settings on record: glycine- and nucleoside-free media; for Protection from growth inhibition by adenosine: inhibitor up to 1000 nM, 60 μM adenosine alone; for Protection from growth inhibition by glycine plus adenosine over adenosine alone: 160 μM glycine combined with 60 μM adenosine. As to the method: Upper panel: schematic of C1 metabolism. Undefined abbreviations include the following: DHF, dihydrofolate; THF, tetrahydrofolate; FAICAR, formyl 5-aminoimidazole-4-carboxamide ribonucleotide; fGAR, formyl GAR; and 5,10-meTHF, 5,10-methylene tetrahydrofolate. Lower panels: KB cells were plated (4000 cells/well) in glycine-, nucleoside-, and folate-free RPMI 1640 medium with 10% dialyzed fetal bovine serum, antibiotics, L-glutamine, and 2 nM leucovorin over a range of inhibitor concentrations in the presence of adenosine (60 μM), glycine (160 μM), thymidine (10 μM), or AICA (320 μM). As shown, combined glycine plus adenosine or AICA was also tested to identify potential mitochondrial C1 targeting.[45] Cell proliferation was assayed with a fluorescence-based assay.[26] Data are representative of at least triplicate experiments (presented as mean values plus/minus standard errors). Methods are described in the Experimental Section, and additional metabolite rescue data for 4, 5, and 8–11 are presented in Figure S3 (Supporting Information).
Metabolite “rescue” experiments have been used to identify targeted pathways for novel antifolate inhibitors including de novo purine nucleotide and thymidylate biosynthesis (protection by adenosine and thymidine, respectively)[25]−[27],[29],[30],[32],[43],[45]−[47] and mitochondrial C1 metabolism (protection by glycine and adenosine).[45] To gain insights into the targeted pathways that contribute to the loss of KB tumor cell proliferation upon treatment with compounds 3–9, we tested the reversal of growth inhibition by the active compounds in Table 1 (up to 1000 nM) in glycine- and nucleoside-free media in the presence of 60 μM adenosine, 160 μM glycine, or 10 μM thymidine alone or with combined adenosine and glycine. The use of glycine- and nucleoside-free media for these experiments expands the ability to identify causal intracellular targets (including previously unrecognized mitochondrial targets[45]) that can be confirmed by targeted metabolomics and direct in vitro assays (below). […] The results of these experiments are shown in Figure 7 (lower panel) and in Figure S3 (Supporting Information).
AICA circumvents the first folate-dependent enzyme, GARFTase, and is directly metabolized to ZMP (AICAR), thus providing a substrate for AICARFTase[26],[32],[46] (Figure 7, upper panel). This distinguishes primary inhibition at GARFTase (protection by AICA) versus AICARFTase (incomplete protection by AICA) for inhibitors of de novo purine biosynthesis.[25]
Additional proliferation assays with metabolite rescue used KB cells to identify the targeted pathway and enzyme(s) in folate- and glycine-free RPMI1640, DFBS, 2 mM glutamine, and antibiotics. […] These assays have been previously described.[25],[26],[45]

Where [5] appears, read: Homo sapiens, RT16, 96 h, 2 nM leucovorin, mean (standard error).
Where [6] appears, read: Homo sapiens, RT16; 96 h, 2 nM leucovorin; mean (standard error).

A word on the IC50: it is the concentration that inhibits the measured activity by half. On to `Nc1nc2sc(CCCCc3cccc(C(=O)N[C@@H](CCC(=O)O)C(=O)O)n3)cc2c(=O)[nH]1` [Compound 3, (6-(4-(2-Amino-4-oxo-3,4-dihydrothieno[2,3-d]pyrimidin-6-yl)butyl)picolinoyl)-L-glutamic Acid], for which the IC50 in assay [1] (96 h, 2 nM leucovorin; mean (standard error)) was 24.7 nM; in assay [1] (setting [5]), 25 nM; in assay [2], > 1000 nM; in assay [3], > 1000 nM; in assay [4] it was > 1000 nM.

In the case of `Nc1nc2sc(CCCc3csc(C(=O)N[C@@H](CCC(=O)O)C(=O)O)c3F)cc2c(=O)[nH]1` [Compound 8, (4-(3-(2-Amino-4-oxo-3,4-dihydrothieno[2,3-d]pyrimidin-6-yl)propyl)-3-fluorothiophene-2-carbonyl)-L-glutamic Acid], the “Protection from growth inhibition by adenosine” value with KB tumor cells is reported as “completely protective”. Moreover, the IC50 in assay [1] (setting [5]) was 1.96 nM; in assay [2] it was 560 nM; in assay [3], > 1000 nM; in assay [4] it was > 1000 nM. The “IC50 RFC PC43-10” value in assay [2] was “slight inhibition”.

For `Nc1nc2sc(CCCCc3ccc(C(=O)N[C@@H](CCC(=O)O)C(=O)O)c(F)c3)cc2c(=O)[nH]1` [Compound 7, (4-(4-(2-Amino-4-oxo-3,4-dihydrothieno[2,3-d]pyrimidin-6-yl)butyl)-2-fluorobenzoyl)-L-glutamic Acid], in the assay on KB tumor cells, the “Protection from growth inhibition by glycine plus adenosine over adenosine alone” value is “slightly and reproducibly enhanced”. Moreover, the “Protection from growth inhibition by adenosine” value in the assay with KB tumor cells is “substantially protective”. The IC50 in assay [1] (setting [5]) is 2.27 nM; in assay [2], > 1000 nM; in assay [3], > 1000 nM; in assay [4], > 1000 nM.

`Nc1nc2sc(CCCCc3cnc(C(=O)N[C@@H](CCC(=O)O)C(=O)O)c(F)c3)cc2c(=O)[nH]1` [Compound 5, (5-(4-(2-Amino-4-oxo-3,4-dihydrothieno[2,3-d]pyrimidin-6-yl)butyl)-3-fluoropicolinoyl)-L-glutamic Acid]: the “Protection from growth inhibition by adenosine” value in the assay on KB tumor cells was “completely protective”. The IC50 in assay [1] (setting [5]) is 1.23 nM; in assay [2], > 1000 nM; in assay [3], 344 nM; in assay [4], > 1000 nM.

Regarding `Nc1nc2sc(CCCCc3csc(C(=O)N[C@@H](CCC(=O)O)C(=O)O)c3F)cc2c(=O)[nH]1` [Compound 9, (4-(4-(2-Amino-4-oxo-3,4-dihydrothieno[2,3-d]pyrimidin-6-yl)butyl)-3-fluorothiophene-2-carbonyl)-L-glutamic Acid], the “Protection from growth inhibition by glycine plus adenosine over adenosine alone” value with KB tumor cells was “slightly and reproducibly enhanced”. Moreover, the “Protection from growth inhibition by adenosine” value in the assay on KB tumor cells was “substantially protective”. Further, the IC50 is 1.29 nM in assay [1] (setting [6]), > 1000 nM in assay [2], 167 nM in assay [3] and > 1000 nM in assay [4].

With `Nc1nc2sc(CCCc3ccc(C(=O)N[C@@H](CCC(=O)O)C(=O)O)cc3)cc2c(=O)[nH]1` [Compound 1], the “Protection from growth inhibition by glycine plus adenosine over adenosine alone” value in the assay with KB tumor cells was “substantially enhanced and was complete”.

`Nc1nc2sc(CCCCc3ccc(C(=O)N[C@@H](CCC(=O)O)C(=O)O)nc3)cc2c(=O)[nH]1` [Compound 4, (5-(4-(2-Amino-4-oxo-3,4-dihydrothieno[2,3-d]pyrimidin-6-yl)butyl)picolinoyl)-L-glutamic Acid]: the “Protection from growth inhibition by glycine plus adenosine over adenosine alone” value with KB tumor cells was “slightly and reproducibly enhanced”. The “Protection from growth inhibition by adenosine” value in the assay on KB tumor cells is listed as “substantially protective”. In addition, the IC50 is 0.94 nM in assay [1] (setting [6]), > 1000 nM in assay [2], 318 nM in assay [3] and > 1000 nM in assay [4].

With `Nc1nc2sc(CCCc3ccc(C(=O)N[C@@H](CCC(=O)O)C(=O)O)c(F)c3)cc2c(=O)[nH]1` [Compound 6, (4-(3-(2-Amino-4-oxo-3,4-dihydrothieno[2,3-d]pyrimidin-6-yl)propyl)-2-fluorobenzoyl)-L-glutamic Acid], the “Protection from growth inhibition by glycine plus adenosine over adenosine alone” value with KB tumor cells is “substantially enhanced and was complete”. For the same compound, the IC50 in assay [1] (setting [5]) was 1.07 nM; in assay [2], > 1000 nM; in assay [3] it was 591 nM; in assay [4], > 1000 nM.
